The target of the test is T1, Multidrug resistance protein 4 (MRP4/ABCC4) (Homo sapiens, UniProt O15439).
T1 construct: recombinant human MRP4-his6 in Sf9 membrane vesicles
T1 sequence (O15439 1-1325): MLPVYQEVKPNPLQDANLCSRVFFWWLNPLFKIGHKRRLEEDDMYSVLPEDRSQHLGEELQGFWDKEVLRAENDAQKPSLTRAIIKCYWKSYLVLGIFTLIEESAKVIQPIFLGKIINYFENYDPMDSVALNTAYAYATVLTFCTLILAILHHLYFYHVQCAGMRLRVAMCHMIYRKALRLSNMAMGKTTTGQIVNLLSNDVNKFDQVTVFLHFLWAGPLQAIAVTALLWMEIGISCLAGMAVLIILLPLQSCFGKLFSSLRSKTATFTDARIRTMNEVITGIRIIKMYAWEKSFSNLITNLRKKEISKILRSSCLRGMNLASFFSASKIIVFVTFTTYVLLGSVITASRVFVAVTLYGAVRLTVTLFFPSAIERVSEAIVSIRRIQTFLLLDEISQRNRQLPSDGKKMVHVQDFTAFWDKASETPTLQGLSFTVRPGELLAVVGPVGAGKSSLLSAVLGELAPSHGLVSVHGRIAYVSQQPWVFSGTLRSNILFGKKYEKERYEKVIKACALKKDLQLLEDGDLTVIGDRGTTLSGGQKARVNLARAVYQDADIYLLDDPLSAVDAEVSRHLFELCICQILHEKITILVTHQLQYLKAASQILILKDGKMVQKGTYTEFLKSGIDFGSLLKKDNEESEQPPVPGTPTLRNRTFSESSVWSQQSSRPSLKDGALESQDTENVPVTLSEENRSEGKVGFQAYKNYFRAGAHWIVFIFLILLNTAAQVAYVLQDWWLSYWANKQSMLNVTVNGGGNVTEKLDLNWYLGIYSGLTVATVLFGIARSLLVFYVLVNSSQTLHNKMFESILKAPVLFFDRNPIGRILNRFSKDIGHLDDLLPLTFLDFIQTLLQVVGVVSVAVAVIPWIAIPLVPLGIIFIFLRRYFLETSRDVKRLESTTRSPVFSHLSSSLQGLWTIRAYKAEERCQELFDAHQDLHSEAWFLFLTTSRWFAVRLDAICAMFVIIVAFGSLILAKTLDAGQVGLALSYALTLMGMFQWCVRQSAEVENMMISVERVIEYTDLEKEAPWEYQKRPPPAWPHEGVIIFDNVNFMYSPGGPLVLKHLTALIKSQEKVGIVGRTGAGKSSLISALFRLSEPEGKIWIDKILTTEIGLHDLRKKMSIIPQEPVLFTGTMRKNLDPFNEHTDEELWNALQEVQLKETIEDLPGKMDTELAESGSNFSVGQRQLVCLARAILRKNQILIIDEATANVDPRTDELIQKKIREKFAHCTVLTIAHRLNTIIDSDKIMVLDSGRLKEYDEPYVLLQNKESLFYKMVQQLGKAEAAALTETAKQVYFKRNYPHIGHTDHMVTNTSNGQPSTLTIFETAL
Briefly: fluorescent vesicular transport assay, ATP-dependent uptake in Sf9 MRP4 membrane vesicles against control vesicles (Km). It is filed as biochemical.

Consider “8-(2-[fluoresceinyl]aminoethylthio)adenosine-3′,5′-cyclic monophosphate [fluo-cAMP]”, for which the Km was determined as 5.8 µM.

The values above are taken from paper PMC6873218, “Functional Expression of Multidrug Resistance Protein 4 MRP4/ABCC4” (Slas Discovery, 2019).
